Laboratory results from patent publication US12686676B2, “Compound, endothelin-A receptor antagonist, and pharmaceutical composition” (Alchemedicine, Inc., priority 2021, dated 2026).

Experiments:
ETA receptor = target: T1, ETA receptor (Homo sapiens, UniProt P25101); details: cited from earlier work
T1 sequence (P25101 21-427): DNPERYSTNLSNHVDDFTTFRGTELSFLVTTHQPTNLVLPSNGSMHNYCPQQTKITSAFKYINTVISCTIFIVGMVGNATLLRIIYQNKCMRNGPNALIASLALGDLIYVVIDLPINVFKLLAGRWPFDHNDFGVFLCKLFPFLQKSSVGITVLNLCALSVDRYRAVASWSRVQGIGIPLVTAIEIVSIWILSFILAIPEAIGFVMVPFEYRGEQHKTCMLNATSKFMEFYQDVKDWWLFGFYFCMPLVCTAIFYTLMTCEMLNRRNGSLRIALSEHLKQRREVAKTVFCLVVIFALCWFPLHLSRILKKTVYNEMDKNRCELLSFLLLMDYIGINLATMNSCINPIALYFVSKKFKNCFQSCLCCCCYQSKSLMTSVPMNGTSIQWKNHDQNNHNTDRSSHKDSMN

[1] = target: T2, human endothelin A receptor (Homo sapiens, UniProt P25101); assay: Endothelin A receptor inhibitory effect (aequorin light emission, endothelin at EC80); assay type: cell-based; details: for IC50: CHO-K1-mt aequorin cells expressing human endothelin A receptor, endothelin at EC80, read-out: ETA receptor inhibitory effect; for ETA selectivity (ETB/ETA): ETB IC50 value/ETA IC50 value
T2 construct: expressed in transfected cells; host or cells: CHO-K1-mt aequorin cells
T2 sequence (P25101 21-427): T1 sequence (P25101 21-427)
Method: The inhibitory effect on an endothelin A receptor was studied by the following method.
(§1) CHO-K1-mt aequorin cells forced to express a human endothelin A receptor (Accession Number NP_001948.1) were cultured in an antibiotic-free medium for 18 hours, then treated with PBS-EDTA (5 mM EDTA), centrifuged (2 min, 405×g, room temperature), and then suspended in an assay buffer (DMEM/HAM's F12 with HEPES+0.1% BSA protease free).
(§2) 1×10^6 cells/mL of the cells were incubated at room temperature for 4 hours in the presence of coelenterazine h (Molecular Probes, Inc.) (final concentration: 5 µM). Agonistic reaction based on endothelin was confirmed to determine an endothelin concentration corresponding to EC80.
(§3) Subsequently, 50 µL (10000 cells/well) of the cell suspension treated with coelenterazine h and 50 µL of an assay buffer containing a test substance (final concentration: 0.5% in DMSO) were added to each well of a 96-well plate. 15 minutes later, endothelin was added such that its final concentration was an EC80 concentration. Receptor activity was measured as the quantity of light emission in FDSS6000 (Hamamatsu Photonics K.K.). IC50 values were calculated using XLfit (ID Business Solutions Ltd. (IDBS)).

[2] = target: T3, human endothelin B receptor (Homo sapiens, UniProt P24530); assay: Endothelin B receptor inhibitory effect (aequorin light emission, endothelin at EC80); assay type: cell-based; details: CHO-K1-mt aequorin cells expressing human endothelin B receptor; endothelin at EC80; read-out: ETB receptor inhibitory effect
T3 construct: expressed in transfected cells; host or cells: CHO-K1-mt aequorin cells
T3 sequence (P24530 27-442): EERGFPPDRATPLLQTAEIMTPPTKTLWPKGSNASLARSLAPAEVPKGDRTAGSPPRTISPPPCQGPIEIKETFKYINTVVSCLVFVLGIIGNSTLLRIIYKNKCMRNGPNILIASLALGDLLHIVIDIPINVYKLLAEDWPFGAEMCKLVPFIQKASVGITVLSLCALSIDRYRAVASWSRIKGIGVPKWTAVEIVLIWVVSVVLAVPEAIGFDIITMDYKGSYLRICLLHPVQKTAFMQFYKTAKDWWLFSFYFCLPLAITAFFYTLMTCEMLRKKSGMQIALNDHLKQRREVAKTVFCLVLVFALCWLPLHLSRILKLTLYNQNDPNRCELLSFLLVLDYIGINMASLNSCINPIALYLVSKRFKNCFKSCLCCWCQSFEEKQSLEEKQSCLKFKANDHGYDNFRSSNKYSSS
Method: The inhibitory effect on an endothelin B receptor was studied by the following method.
as §1, with “endothelin B” for “endothelin A”, “Number NP_000106.1)” for “Number NP_001948.1)”
as §2
as §3, with “K.K.).” for “K.K.). IC50 values were calculated using XLfit (ID Business Solutions Ltd. (IDBS)).”

[3] = pulmonary hypertension associated with connective tissue disease; cited from earlier work
[4] = in vivo; cited from earlier work
CYP2C9 = target: T4, CYP2C9 (Homo sapiens, UniProt P11712); assay: CYP2C9 inhibitory effect (liver microsome fraction, diclofenac substrate); assay type: in vitro ADME; details: liver microsome fraction 0.5 mg/mL, diclofenac 2.5 μM
T4 construct: A frozen liver microsome fraction was thawed on ice; from tissue; host or cells: liver microsome fraction
Method: The inhibitory effect on CYP2C9 was evaluated by the following method. • (1) A frozen liver microsome fraction was thawed on ice and diluted with a potassium phosphate buffer (PPB) to a final concentration of 0.5 mg/mL. • (2) A substrate for evaluation (diclofenac: D6899 from Sigma-Aldrich Co. LLC) was added thereto such that its final concentration was 2.5 μM. • (3) The mixture was slowly mixed and incubated at 37±1° C. for 5 minutes to prepare a reaction solution. • (4) 801 μL of the reaction solution was dispensed to each tube, and an evaluation compound serially diluted with 0.9 μL of DMSO was added thereto such that its final concentration was 9.1 to 20000 nM (⅓ dilutions with 8 concentrations). In this context, 0.9 μL of DMSO was added to a negative control group, and 0.9 μL of sulfaphenazole (S0758 from Sigma-Aldrich Co. LLC) adjusted to a final concentration of 1 μM with DMSO was added to a positive control group. • (5) After mixing, a 270 μL aliquot was transferred to each of two fresh tubes and incubated in a shaking water bath at 37±1° C. for 5 minutes. • (6) Reaction was started by the addition of 30 μL of 10 mM NADPH, and the tubes were incubated at 37° C.±1° C. for 10 minutes. • (7) The tubes were taken out of the shaking water bath, and the reaction was terminated by the addition of 300 μL of a reaction stop solution. After mixing, the tubes were centrifuged at 1021×g at 4° C. for 20 minutes. • (8) The amount of the substrate for evaluation metabolized was determined by LC-MS/MS to calculate the rate of inhibition at each concentration of the evaluation compound. • (9) IC50 values were calculated using GraphPad Prism5. A sample having an IC50 value of 1 μM or lower was given “++”; a sample having an IC50 value in the range of higher than 1 μM and 10 μM or lower was given “+”; and a sample having an IC50 value of higher than 10 μM was given “−”.

[5] = in vivo; cited from earlier work; remark: listed apart in the source

T4 sequence (P11712 whole entry): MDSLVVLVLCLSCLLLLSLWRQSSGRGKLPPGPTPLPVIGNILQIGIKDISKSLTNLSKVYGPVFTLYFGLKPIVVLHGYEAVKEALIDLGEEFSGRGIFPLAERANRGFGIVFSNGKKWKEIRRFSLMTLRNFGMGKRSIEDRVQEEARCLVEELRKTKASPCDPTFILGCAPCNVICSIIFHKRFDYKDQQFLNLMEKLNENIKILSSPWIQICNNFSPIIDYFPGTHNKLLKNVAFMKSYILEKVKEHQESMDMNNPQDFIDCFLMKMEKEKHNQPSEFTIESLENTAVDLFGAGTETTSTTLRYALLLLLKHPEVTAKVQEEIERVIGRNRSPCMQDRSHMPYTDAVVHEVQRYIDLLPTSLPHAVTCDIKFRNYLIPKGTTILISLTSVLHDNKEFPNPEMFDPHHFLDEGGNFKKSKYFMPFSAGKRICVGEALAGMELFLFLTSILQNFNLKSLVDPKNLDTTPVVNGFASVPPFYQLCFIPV

| IC50 [1] [nM] | IC50 [2] [nM] | IC50 (CYP2C9) [nM] | SMILES | Selective inhibition of ETA receptor in contrast to ETB receptor (ETA receptor) | ETA selectivity (ETB/ETA) [1] | Drug efficacy in clinical trials [3] | Peripheral edema [4] | Effect on endothelin concentrations in blood [5] |
| --- | --- | --- | --- | --- | --- | --- | --- | --- |
| 1 to 10 | > 5000 | ≤ 1000 | Cc1cc2c(cc1CC(=O)c1sccc1S(=O)(=O)Nc1onc(C)c1Cl)OCO2 [Comparative Example 1, sitaxentan, reference compound] | selectively inhibit the ETA receptor | ++ (ETB IC50 value/ETA IC50 value of higher than 5000) | significant drug efficacy | not cause peripheral edema | not increase endothelin concentrations in blood |
| ≤ 1 | > 5000 | ≤ 1000 | Cc1cc2c(cc1CC(=O)c1sccc1S(=O)(=O)Nc1onc(C)c1Cl)COC2 [Comparative Example 2, reference compound] |  | ++ (ETB IC50 value/ETA IC50 value of higher than 5000) |  |  |  |
| 1 to 10 | > 5000 |  | Cc1cc2c(cc1C#Cc1ncccc1S(=O)(=O)Nc1noc(C)c1C)COC2C (centres unmarked) [Example 11, 2-((1,6-Dimethyl-1,3-dihydroisobenzofuran-5-yl)ethynyl)-N-(4,5-dimethylisoxazol-3-yl)pyridine-3-sulfonamide] |  |  |  |  |  |
| ≤ 1 | > 5000 |  | Cc1cc2c(cc1C#Cc1ncccc1S(=O)(=O)Nc1noc(C)c1C)C(C)OC2 (centres unmarked) [Example 2, 2-((3,6-Dimethyl-1,3-dihydroisobenzofuran-5-yl)ethynyl)-N-(4,5-dimethylisoxazol-3-yl)pyridine-3-sulfonamide] |  | ++ (ETB IC50 value/ETA IC50 value of higher than 5000) |  |  |  |
